{"source": "paper PMC8625693", "about": "“Synthesis and Structure-Activity Relationships of New 2-Phenoxybenzamides with Antiplasmodial Activity” (Pharmaceuticals, 2021)", "key": {"[1]": {"tested_on": "P. falciparum NF54", "experiment": "In vitro microplate assay against P. falciparum NF54 (3H-hypoxanthine incorporation, erythrocytic stages)", "type": "cell-based, Plasmodium falciparum", "details": "average of four determinations, read-out: P.f. NF54 IC50", "procedure": "(§1) All newly synthesized compounds were tested for their antiplasmodial activity against the chloroquine-sensitive strain Plasmodium falciparum NF54. Cytotoxicity was determined using rat skeletal myofibroblasts (L-6 cells). As standards chloroquine and podophyllotoxin were used.\nIn vitro activity against erythrocytic stages of P. falciparum was determined with a ^3H-hypoxanthine incorporation assay, using the chloroquine sensitive NF54 strain [44]. Chloroquine (Sigma C6628) was used as standard. Test compounds were dissolved in DMSO at 10 mg/mL and added to parasite cultures incubated in RPMI 1640 medium without hypoxanthine, supplemented with HEPES (5.94 g/L, NaHCO3 (2.1 g/L), neomycin (100 U/mL), Albumax (5 g/L) and washed human red blood cells A^+ at 2.5% hematocrit (0.3% parasitemia). Serial drug dilutions of 11 3-fold dilution steps (covering a range from 100–0.002 µg/mL) were prepared. The 96-well plates were incubated at a humidified atmosphere at 37 °C; 4% CO2, 3% O2, 93% N2. After 48 h, 0.05 mL of ^3H-hypoxanthine (=0.5 µCi) was added to each well. The plates were incubated for another 24 h under the same conditions. Then, the plates were harvested with a Betaplate cell harvester (Wallac, Zurich, Switzerland). The red blood cells were transferred onto glass fiber filter and washed with distilled water. The dried filters were inserted into a plastic foil with 10 mL of scintillation fluid and counted in a Betaplate liquid scintillation counter. IC50 values were determined from sigmoidal inhibition curves by linear regression using Microsoft Excel. Chloroquine was used as control."}, "[2]": {"experiment": "Parallel artificial membrane permeability assay (PAMPA)", "details": "pH 7.4", "procedure": "The PAMPA was performed using a Corning Gentest Pre-coated PAMPA Plate System at a pH of 7.4. It consists of 96-well polystyrene plates, whereas the donor-plate (bottom plate) is a conventional 96-well microtiter plate. The base of the acceptor-plate (top plate) consists of a porous membrane. The pores are lined with a lipid-oil-lipid trilayer. Stock solutions (10 mM) of each test compound were prepared in DMSO or MeOH and then further diluted to a final concentration of 200 µM with phosphate-buffered saline (PBS) at a pH of 7.4. Compound solutions were then added to the wells of the donor plate and pure PBS was added to each well of the acceptor plate. Compounds and negative control (pure PBS) were tested in quadruplicates. Donor and acceptor plate were coupled and incubated at ambient temperature for 5 h. After that, the plates were separated and solutions from each well of both plates were transferred onto 96-well UV-Star Microplates (Greiner Bio-One). The UV-absorption was measured at different wavelengths (between 200 and 300 nm) by a SpectraMax M3 UV plate reader (Molecular Devices). The concentrations were received from a calibration curve for each substance. The plates were analyzed at a wavelength were the R^2 value of the calibration curve was higher than 0.99 [48]. […] (2) cequ=cDt* VD+cAt* VA/VD+VA where: • cD(t)—compound concentration in donor well at time t.\nRecovery of compounds from donor and acceptor wells (mass retention) was calculated as shown in the equation below. Data were only accepted when recovery exceeded 70%. (3) R=1−cDt∗ VD+cAt∗ VA/c0∗ VD where: • R—mass retention (%); • cA(t)—compound concentration in acceptor well at time t; • cD(t)—compound concentration in donor well at time t; • c0—initial compound concentration in donor well; • VD—donor well volume; • VA—acceptor well volume."}, "[3]": {"tested_on": "L-6 cells", "experiment": "In vitro cytotoxicity with L-6 cells (Alamar Blue)", "type": "cell-based, rat", "details": "rat, 72 h", "procedure": "as §1\n(§2) In vitro cytotoxicity was determined using a primary cell line of rat skeletal myofibroblasts. The assay was performed in 96-well microtiter plates, each well containing 0.1 mL of RPMI 1640 medium, supplemented with 0.1% L-glutamine (200 mM) and 10% fetal bovine serum, as well as 4000 L-6 cells. Serial drug dilutions of 11 3-fold dilution steps (covering a range from 100–0.002 µg/mL) were prepared. After 70 h of incubation time, the plates were inspected under an inverted microscope to ensure sterile conditions and growth of the controls. […] Podophyllotoxin (Sigma P4405) was used as control."}, "[4]": {"experiment": "In vitro cytotoxicity with L-6 cells (Alamar Blue)", "type": "cell-based, rat", "details": "rat, Cytotoxicity L-6 Cells IC50", "procedure": "as §1, §2"}, "[5]": {"target": "T1, CYP3A4 (Homo sapiens, UniProt P08684)", "T1 construct": "purchased Corning, Glendale, AZ, USA", "T1 sequence (P08684 2-503 limits assumed)": "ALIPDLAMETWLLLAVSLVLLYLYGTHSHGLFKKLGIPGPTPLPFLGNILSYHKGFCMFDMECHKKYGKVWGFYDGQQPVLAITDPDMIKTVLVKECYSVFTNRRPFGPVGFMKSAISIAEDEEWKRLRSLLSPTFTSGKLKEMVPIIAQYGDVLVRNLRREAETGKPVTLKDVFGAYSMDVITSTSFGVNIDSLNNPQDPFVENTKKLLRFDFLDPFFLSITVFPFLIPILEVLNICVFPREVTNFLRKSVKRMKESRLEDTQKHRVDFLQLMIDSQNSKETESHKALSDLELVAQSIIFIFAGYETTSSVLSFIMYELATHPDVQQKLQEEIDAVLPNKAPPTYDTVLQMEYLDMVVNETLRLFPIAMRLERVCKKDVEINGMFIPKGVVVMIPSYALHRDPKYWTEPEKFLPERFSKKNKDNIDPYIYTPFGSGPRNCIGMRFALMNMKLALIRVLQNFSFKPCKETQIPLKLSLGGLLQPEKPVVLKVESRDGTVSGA", "experiment": "Cytochrom P450 3A4 inhibition assay (P450-Glo, luciferin-IPA)", "type": "in vitro ADME", "details": "recombinant human CYP3A4 Supersomes (+ oxidoreductase + b5), probe luciferin-IPA, stock solutions diluted to 20 µM, pH 7.4, triplicate", "procedure": "The CYP3A4 inhibition assay was performed using 96-well White Plates (Greiner Bio-One) at a pH of 7.4. […] Stock solutions were further diluted to a final concentration of 20 µM using water (HPLC grade). The luciferin IPA stock solution (3 mM) was diluted to a final concentration of 0.3 mM using water (HPLC grade). The CYP3A4 reaction mixture was prepared by mixing water (HPLC grade) with potassium phosphate buffer (1 M), luciferin IPA (0.3 mM) and CYP3A4 membrane (1 pmol/µL). The control reaction mixture was prepared using water (HPLC grade), potassium phosphate buffer (1 M), luciferin IPA (0.3 mM) and membrane without CYP activity (1 pmol/µL). Solutions A and B of the NADPH regeneration system were mixed and HPLC grade water was added. The reconstituted luciferin detection reagent was prepared by mixing the reconstituted buffer with esterase with the luciferin detection reagent. Then, solutions of test compounds and standard were added to the wells of the 96-well White Plate, each was tested in triplicate. The CYP3A4 reaction mixture was added to each well and the plate was incubated for 10 min at room temperature. After that, the NADPH regeneration system was added, inducing the reaction followed by an incubation time of 10 min at ambient temperature. By adding the reconstituted luciferin detection reagent, the reaction was terminated, and a luminescent signal was formed. Luminescence was measured by a SpectraMax M3 UV plate reader (Molecular Devices). The relative light units (RLU) were received from a calibration curve with beetle luciferin. […] The CYP3A4 inhibition (%) was calculated from the RLU."}, "[6]": {"tested_on": "P. falciparum 3D7-A10", "parameters": "method as in PMID 31813848, PMID 32682267", "details": "erythrocytic cycle of 40 h, different drug concentrations; cited from earlier work"}, "[7]": {"tested_on": "P. falciparum", "details": "long-term in vitro, sub-lethal doses, cited from earlier work"}, "[8]": {"details": "Plasmodium falciparum, NF54, chloroquine-sensitive strain NF54, blood stages"}, "[9]": {"details": "chloroquine-sensitive strain NF54, blood stages"}}, "note": "pIC50: −log10 of the molar value. Where two headings read alike, the source gives them in different places."}
{"compound": "O=CN1CCN(c2ccccc2NC(=O)c2cccc(C(F)(F)F)c2Oc2ccc(F)cc2)CC1", "note": "[Compound 18, 2-(4-Fluorophenoxy)-N-[2-(4-formylpiperazin-1-yl)phenyl]-3-(trifluoromethyl)benzamide]", "values": [{"measurement": "pIC50", "setting": "[1]; [8]", "result": "4.81 to 5.18"}, {"measurement": "pIC50", "setting": "[1]; [9]", "result": 5.18}, {"measurement": "Papp at 5 h, 200 µM", "setting": "[2]", "result": 1.05, "unit": "×10⁻⁶ cm/s"}, {"measurement": "pIC50", "setting": "[3]", "result": 4.50}, {"measurement": "IC50 at 72 h", "setting": "[4]", "result": "31.8 to 35.4", "unit": "µM"}, {"measurement": "inhibition at 10 min, 20 µM", "setting": "[5]", "result": 82, "unit": "%"}]}
{"compound": "CC(C)(C)N1CCN(c2ccccc2NC(=O)c2cccc(C(F)(F)F)c2Oc2ccc(F)cc2)CC1", "note": "[Compound 20, 2-(4-Fluorophenoxy)-N-[2-(4-tert-butylpiperazin-1-yl)phenyl]-3-(trifluoromethyl)benzamide]", "values": [{"measurement": "melting point", "result": "142 to 145", "unit": "°C"}, {"measurement": "pIC50", "setting": "[1]; [8]", "result": 5.54}, {"measurement": "Papp at 5 h, 200 µM", "setting": "[2]", "result": 2.48, "unit": "×10⁻⁶ cm/s"}, {"measurement": "IC50 at 72 h", "setting": "[4]", "result": 34.7, "unit": "µM"}]}
{"compound": "CC(C)(C)OC(=O)N1CCN(c2ccc(NC(=O)c3cccc(C(F)(F)F)c3Oc3ccccc3)cc2)CC1", "note": "[Compound 54, tert-Butyl-4-{4-[2-phenoxy-3-(trifluoromethyl)benzamido]phenyl}piperazine-1-carboxylate]", "values": [{"measurement": "pIC50", "setting": "[1]; [8]", "result": 5.91}, {"measurement": "Papp at 5 h, 200 µM", "setting": "[2]", "result": 1.22, "unit": "×10⁻⁶ cm/s"}, {"measurement": "pIC50", "setting": "[3]", "result": 3.73}, {"measurement": "IC50 at 72 h", "setting": "[4]", "result": 124, "unit": "µM"}, {"measurement": "inhibition at 10 min, 20 µM", "setting": "[5]", "result": 80, "unit": "%"}]}
{"compound": "CC(C)(C)C(=O)N1CCN(c2ccccc2NC(=O)c2cccc(C(F)(F)F)c2Oc2ccc(F)cc2)CC1", "note": "[Compound 19, N-{2-[4-(2,2-Dimethylpropanoyl)piperazin-1-yl]phenyl}-2-(4-fluorophenoxy)-3-(trifluoromethyl)benzamide]", "values": [{"measurement": "pIC50", "setting": "[1]; [8]", "result": "6.18 to 6.21"}, {"measurement": "pIC50", "setting": "[1]; [9]", "result": 6.21}, {"measurement": "Papp at 5 h, 200 µM", "setting": "[2]", "result": 0.23, "unit": "×10⁻⁶ cm/s"}, {"measurement": "pIC50", "setting": "[3]", "result": 3.73}, {"measurement": "IC50 at 72 h", "setting": "[4]", "result": "185 to 190", "unit": "µM"}, {"measurement": "inhibition at 10 min, 20 µM", "setting": "[5]", "result": 94, "unit": "%"}]}
{"compound": "CC(C)(C)C(=O)N1CCN(c2cccc(NC(=O)c3cccc(C(F)(F)F)c3Oc3ccc(F)cc3)c2)CC1", "note": "[Compound 38, N-{3-[4-(2,2-Dimethylpropanoyl)piperazin-1-yl]phenyl}-2-(4-fluorophenoxy)-3-(trifluoromethyl)benzamide]", "values": [{"measurement": "pIC50", "setting": "[1]; [8]", "result": 5.50}, {"measurement": "Papp at 5 h, 200 µM", "setting": "[2]", "result": 1.17, "unit": "×10⁻⁶ cm/s"}, {"measurement": "pIC50", "setting": "[3]", "result": 4.11}, {"measurement": "IC50 at 72 h", "setting": "[4]", "result": "78 to 99.6", "unit": "µM"}]}
{"compound": "CC(C)(C)C(=O)N1CCN(c2ccc(NC(=O)c3cccc(C(F)(F)F)c3Oc3ccc(F)cc3)cc2)CC1", "note": "[Compound 39, N-{4-[4-(2,2-Dimethylpropanoyl)piperazin-1-yl]phenyl}-2-(4-fluorophenoxy)-3-(trifluoromethyl)benzamide]", "values": [{"measurement": "pIC50", "setting": "[1]; chloroquine-sensitive strain NF54, blood stages, H, N-pivaloylpiperazinyl", "result": 6.57}, {"measurement": "pIC50", "setting": "[1]; [9]", "result": 6.24}, {"measurement": "Papp at 5 h, 200 µM", "setting": "[2]", "result": 0.24, "unit": "×10⁻⁶ cm/s"}, {"measurement": "pIC50", "setting": "[3]", "result": 4.00}, {"measurement": "IC50 at 72 h", "setting": "[4]", "result": "78 to 99.6", "unit": "µM"}, {"measurement": "inhibition at 10 min, 20 µM", "setting": "[5]", "result": 89, "unit": "%"}]}
{"compound": "CC(C)(C)OC(=O)N1CCN(c2ccccc2NC(=O)c2cccc(C(F)(F)F)c2Oc2ccc(F)cc2)CC1", "note": "[Compound 1, tert-Butyl-4-{2-[2-(4-fluorophenoxy)-3-(trifluoromethyl)benzamido]phenyl}piperazine-1-carboxylate]", "values": [{"measurement": "pIC50", "setting": "[1]; [8]", "result": 6.38}, {"measurement": "Papp at 5 h, 200 µM", "setting": "[2]", "result": 2.37, "unit": "×10⁻⁶ cm/s"}, {"measurement": "stage specific activity", "setting": "[6]", "result": "peak activity in sub-micromolar concentrations on late stage trophozoites"}, {"measurement": "resistance development", "setting": "[7]", "result": "did neither acquire resistances, nor cross-resistances"}, {"measurement": "resistance development", "setting": "[7]; listed as MMV030666", "result": "development of resistant parasites could not be observed"}, {"measurement": "IC50 at 72 h", "setting": "[4]", "result": 131, "unit": "µM"}, {"measurement": "inhibition at 10 min, 20 µM", "setting": "[5]", "result": 87, "unit": "%"}]}
